Data reported in ChEMBL document CHEMBL4118205, “Design, synthesis and biological evaluation of artemisinin derivatives containing fluorine atoms as anticancer agents” (Bioorg Med Chem Lett, 2018).
Active and inactive are the calls of the source. No cut-off for these calls is given here.

Key:
[1] = system: MCF7; assay: Cell cycle arrest in human MCF7 cells assessed as accumulation at S phase at 5 uM after 48 hrs by propidium iodide staining based flow cytometry (reference value: 41.55%); assay type: functional
[2] = system: MCF7; assay: Induction of apoptosis in human MCF7 cells assessed as viable cells at 1 uM after 48 hrs by Annexin-V FITC/propidium iodide staining based flow cytometry (reference value: 88.59%); assay type: functional; details: MCF7, 48 h, read-out: Activity
[3] = system: MCF7; assay: Induction of apoptosis in human MCF7 cells assessed as early apoptotic cells at 10 uM after 48 hrs by Annexin-V FITC/propidium iodide staining based flow cytometry (reference value: 0.50%); assay type: functional
[4] = system: MCF7; assay: Induction of apoptosis in human MCF7 cells assessed as early apoptotic cells at 2.5 uM after 48 hrs by Annexin-V FITC/propidium iodide staining based flow cytometry (reference value: 0.50%); assay type: functional
[5] = system: MCF7; assay: Induction of apoptosis in human MCF7 cells assessed as viable cells at 2.5 uM after 48 hrs by Annexin-V FITC/propidium iodide staining based flow cytometry (reference value: 88.59%); assay type: functional; details: MCF7, 48 h, read-out: Activity
[6] = system: MCF7; assay: Induction of apoptosis in human MCF7 cells assessed as early apoptotic cells at 1 uM after 48 hrs by Annexin-V FITC/propidium iodide staining based flow cytometry (reference value: 0.50%); assay type: functional
[7] = system: MCF7; assay: Induction of apoptosis in human MCF7 cells assessed as morphological alteration up to 20 uM after 48 hrs by Hoechst 33258 staining based fluorescence microscopic method; assay type: functional, cell-based
[8] = system: MCF7; assay: Cell cycle arrest in human MCF7 cells assessed as accumulation at G1 phase at 5 uM after 48 hrs by propidium iodide staining based flow cytometry (reference value: 45.21%); assay type: functional
[9] = system: MCF7; assay: Cell cycle arrest in human MCF7 cells assessed as accumulation at G2 phase at 5 uM after 48 hrs by propidium iodide staining based flow cytometry (reference value: 13.24%); assay type: functional
[10] = system: MDA-MB-231; assay: Cytotoxicity against human MDA-MB-231 cells assessed as reduction in cell viability after 72 hrs by MTT assay; assay type: functional, cell-based; details: MDA-MB-231, 72 h
[11] = system: MCF7; assay: Cytotoxicity against human MCF7 cells assessed as reduction in cell viability after 72 hrs by MTT assay; assay type: functional, cell-based; details: MCF7, 72 h
[12] = system: MCF7; assay: Cell cycle arrest in human MCF7 cells assessed as accumulation at G2 phase at 1 uM after 48 hrs by propidium iodide staining based flow cytometry (reference value: 13.24%); assay type: functional
[13] = system: MCF7; assay: Cell cycle arrest in human MCF7 cells assessed as accumulation at G2 phase at 10 uM after 48 hrs by propidium iodide staining based flow cytometry (reference value: 13.24%); assay type: functional
[14] = system: MCF7; assay: Induction of apoptosis in human MCF7 cells assessed as cell shrinkage up to 20 uM after 48 hrs by Hoechst 33258 staining based fluorescence microscopic method; assay type: functional
[15] = system: MCF7; assay: Induction of apoptosis in human MCF7 cells assessed as granular apoptotic body formation up to 20 uM after 48 hrs by Hoechst 33258 staining based fluorescence microscopic method; assay type: functional, cell-based
[16] = system: MCF7; assay: Induction of apoptosis in human MCF7 cells assessed as necrotic cells at 2.5 uM after 48 hrs by Annexin-V FITC/propidium iodide staining based flow cytometry (reference value: 4.69%); assay type: functional
[17] = system: MCF7; assay: Induction of apoptosis in human MCF7 cells assessed as late apoptotic cells at 2.5 uM after 48 hrs by Annexin-V FITC/propidium iodide staining based flow cytometry (reference value: 6.22%); assay type: functional
[18] = system: MCF7; assay: Cell cycle arrest in human MCF7 cells assessed as accumulation at S phase at 2.5 uM after 48 hrs by propidium iodide staining based flow cytometry (reference value: 41.55%); assay type: functional
[19] = system: U-87 MG; assay: Cytotoxicity against human U87 cells assessed as reduction in cell viability after 72 hrs by MTT assay; assay type: functional, cell-based, U-87MG ATCC
[20] = system: MCF7; assay: Cell cycle arrest in human MCF7 cells assessed as accumulation at G1 phase at 1 uM after 48 hrs by propidium iodide staining based flow cytometry (reference value: 45.21%); assay type: functional
[21] = system: MCF7; assay: Cell cycle arrest in human MCF7 cells assessed as accumulation at S phase at 0.5 uM after 48 hrs by propidium iodide staining based flow cytometry (reference value: 41.55%); assay type: functional
[22] = system: MCF7; assay: Induction of apoptosis in human MCF7 cells assessed as necrotic cells at 10 uM after 48 hrs by Annexin-V FITC/propidium iodide staining based flow cytometry (reference value: 4.69%); assay type: functional
[23] = system: SH-SY5Y; assay: Cytotoxicity against human SH-SY5Y cells assessed as reduction in cell viability after 72 hrs by MTT assay; assay type: functional, cell-based
[24] = system: MCF7; assay: Induction of apoptosis in human MCF7 cells assessed as viable cells at 20 uM after 48 hrs by Annexin-V FITC/propidium iodide staining based flow cytometry (reference value: 88.59%); assay type: functional; details: MCF7, 48 h, read-out: Activity
[25] = system: MCF7; assay: Cell cycle arrest in human MCF7 cells assessed as accumulation at S phase at 1 uM after 48 hrs by propidium iodide staining based flow cytometry (reference value: 41.55%); assay type: functional
[26] = system: MCF7; assay: Induction of apoptosis in human MCF7 cells after 48 hrs by Annexin-V FITC/propidium iodide staining based flow cytometry; assay type: functional, cell-based
[27] = system: MCF7; assay: Induction of apoptosis in human MCF7 cells assessed as early apoptotic cells at 20 uM after 48 hrs by Annexin-V FITC/propidium iodide staining based flow cytometry (reference value: 0.50%); assay type: functional
[28] = system: MCF7; assay: Cell cycle arrest in human MCF7 cells assessed as accumulation at S phase at 10 uM after 48 hrs by propidium iodide staining based flow cytometry (reference value: 41.55%); assay type: functional
[29] = system: MCF7; assay: Induction of apoptosis in human MCF7 cells assessed as necrotic cells at 1 uM after 48 hrs by Annexin-V FITC/propidium iodide staining based flow cytometry (reference value: 4.69%); assay type: functional
[30] = system: A-375; assay: Cytotoxicity against human A375 cells assessed as reduction in cell viability after 72 hrs by MTT assay; assay type: functional, cell-based; details: A-375, 72 h
[31] = system: MCF7; assay: Induction of apoptosis in human MCF7 cells assessed as necrotic cells at 5 uM after 48 hrs by Annexin-V FITC/propidium iodide staining based flow cytometry (reference value: 4.69%); assay type: functional
[32] = system: A549; assay: Cytotoxicity against human A549 cells assessed as reduction in cell viability after 72 hrs by MTT assay; assay type: functional, cell-based; details: A549, 72 h
[33] = system: MCF7; assay: Induction of apoptosis in human MCF7 cells assessed as late apoptotic cells at 1 uM after 48 hrs by Annexin-V FITC/propidium iodide staining based flow cytometry (reference value: 6.22%); assay type: functional
[34] = system: MCF7; assay: Cell cycle arrest in human MCF7 cells assessed as accumulation at G2 phase at 0.5 uM after 48 hrs by propidium iodide staining based flow cytometry (reference value: 13.24%); assay type: functional
[35] = system: MCF7; assay: Induction of apoptosis in human MCF7 cells assessed as viable cells at 10 uM after 48 hrs by Annexin-V FITC/propidium iodide staining based flow cytometry (reference value: 88.59%); assay type: functional; details: MCF7, 48 h, read-out: Activity
[36] = system: MCF7; assay: Induction of apoptosis in human MCF7 cells assessed as late apoptotic cells at 10 uM after 48 hrs by Annexin-V FITC/propidium iodide staining based flow cytometry (reference value: 6.22%); assay type: functional
[37] = system: MCF7; assay: Cell cycle arrest in human MCF7 cells assessed as accumulation at G1 phase at 10 uM after 48 hrs by propidium iodide staining based flow cytometry (reference value: 45.21%); assay type: functional

C[C@H]1[C@H](N2CCN(C(=O)Nc3ccc(OC(F)(F)F)cc3)CC2)O[C@@H]2O[C@@]3(C)CC[C@H]4[C@H](C)CC[C@@H]1[C@@]24OO3
Activity [1]: 15.49%
viability at 1 µM [2]: 84.4%
Activity [3]: 0.8%
Activity [4]: 0.66%
viability at 2.5 µM [5]: 59.5%
Activity [6]: 0.48%
Activity [7]: Active
Activity [8]: 76.68%
Activity [9]: 7.83%
IC50 [10]: 8.4 µM
IC50 [11]: 2.1 µM
Activity [12]: 10.09%
Activity [13]: 7.3%
Activity [14]: Active
Activity [15]: Active
Activity [16]: 20.85%
Activity [17]: 19.17%
Activity [18]: 26.36%
IC50 [19]: 19.7 µM
Activity [20]: 56.57%
Activity [21]: 39.72%
Activity [22]: 17.18%
IC50 [23]: 3.6 µM
viability at 20 µM [24]: 16.2%
Activity [25]: 33.33%
Activity [26]: Dose-dependent effect
Activity [27]: 4.78%
Activity [28]: 9.2%
Activity [29]: 8.1%
IC50 [30]: 3.4 µM
Activity [31]: 21.51%
IC50 [32]: 19.9 µM
Activity [33]: 7.01%
Activity [34]: 12.33%
viability at 10 µM [35]: 28.7%
Activity [36]: 53.36%
Activity [37]: 83.5%
